Data taken from paper PMC12333940, “A prometabolite strategy inhibits cardiometabolic disease in an ApoE^–/– murine model of atherosclerosis” (JCI Insight, 2025).
Several values for one entry are separate records, joined by “and”; a condition that tells them apart may be missing. Equal values may be shown once.

How the values were obtained:
ApoE^–/– mice on an HFD [1] = test: qPCR of liver lipid metabolism genes; format: in vivo, mouse; parameters: srebf1 / srebf2 / fasn / acly / scd1 / acaca / cpt1a: scale not given here; settings: for acaca / acly / cpt1a / fasn / scd1 / srebf1 / srebf2: qPCR, individual mice
Experimental: We then asked whether SerBut’s effects on disease pathology and inflammation may be partially mediated by changes in lipid metabolism by measuring lipogenic and lipid oxidation gene expression by qPCR after treatment for 6 weeks (Supplemental Figure 10, F–L).
For 6 weeks, mice were freely administered water, water containing 150 mM SerBut, or water containing an equimolar amount of NaBut. SerBut water was pH adjusted using 10 M NaOH to a final pH of 7.4. […] In concert, mice were fed an HFD with 42% from fat and 0.2% total cholesterol (Envigo, TD-88137) ad libitum. After 6 weeks, mice were euthanized. The lMLNs, ILNs, spleen, heart, and aorta were harvested and processed for flow cytometry analysis ([67]). The liver was harvested and part was homogenized in tissue protein extraction reagent buffer (Invitrogen, 78510) supplemented with protease inhibitor mini tablets (Thermo Fisher Scientific, PIA32955) for Western blotting and qPCR. The remaining liver was fixed with 4% paraformaldehyde and embedded in paraffin for histological analysis.

[2] = Biodistribution of free butyrate after oral gavage, ApoE–/– mice on HFD
Experimental: Samples were prepared and derivatized as described previously ([28]). Stock solutions were prepared in water/acetonitrile (ACN) (1:1 v/v): 3-nitrophenylhydrazine (NPH), and 1-ethyl-3-(3-dimethylaminopropyl)carbodiimide (EDC) (in 1% pyridine). The internal standard, 4-methylvaleric acid, was added. Samples were mixed with NPH and EDC stocks at a 1:1:1 volume ratio. The mixture was heated in a heating block at 60°C for 30 minutes. Samples were filtered through 0.22 μm filters and stored at 4°C before analysis.
An Agilent 6460 Triple Quad MS-MS was used to detect the derivatized butyrate. Both derivatized butyrate-NPH and 4-methylvaleric-NPH were detected in negative mode. Column: Thermo Fisher Scientific C18 4.6 × 50 mm, 1.8 μm particle size, at room temperature. Mobile phase A: water with 0.1% v/v formic acid. Mobile phase B: ACN with 0.1% v/v formic acid. Injection volume: 5.0 μL. Flow rate: 0.5 mL/min. Gradient of solvent: 15% mobile phase B at 0.0 minutes; 100% mobile phase B at 3.5 minutes; 100% mobile phase B at 6.0 minutes; 15% mobile phase B at 6.5 minutes. The MS conditions were optimized using pure butyrate-NPH or 4-methylvaleric-NPH at 1 mM. The fragment voltage was set to 135 V, and the collision energy was 18 V. Multiple reaction monitoring (MRM) of 222 → 137 was assigned to butyrate, and MRM of 250 → 137 was assigned to 4-methylvaleric acid as the internal standard. The ratio between MRM of butyrate and 4-methylvaleric acid was used to quantify butyrate concentration.
Three hours after administration, mice were anesthetized under isoflurane, and blood was collected via submandibular vein into EDTA-coated tubes. The tubes were centrifuged, and plasma was collected and frozen at –80°C. […] Organs, including liver, MLNs, ILNs, spleen, lung, heart, aorta, small intestine, and large intestine were collected and then transferred to –80°C until further processing. To extract butyrate from plasma or organs, a 1:1 (v/v) ACN/water solution was used. Plasma was mixed 1:1 with the ACN/water solution and centrifuged to remove denatured proteins. Organs were weighed, transferred to Lysing Matrix D tubes (MP Biomedicals), and combined with the 1:1 v/v ACN/water solution. Samples were then lysed using a FastPrep-24 5G homogenizer (MP Biomedicals) and centrifuged. The supernatants were collected for butyrate measurement by LC-MS/MS. The final butyrate content in each organ was normalized by organ weight.

ApoE^–/– mice on an HFD [3] = test: Inflammatory cytokines in plasma (LEGENDPlex); format: in vivo, mouse; parameters: Plasma LegendPlex IFNy / Plasma LegendPlex IL-1B / Plasma LegendPlex IL-6: unit not given here; settings: for plasma IL-1β / IL-6 and IFN-γ in plasma: 6 weeks; for IL-6 and IFN-γ in plasma: compared with control groups; for Plasma LegendPlex IFNy / Plasma LegendPlex IL-1B / Plasma LegendPlex IL-6: individual mice
Experimental: SerBut water was pH adjusted using 10 M NaOH to a final pH of 7.4. […] After 6 weeks, mice were euthanized. […] The liver was harvested and part was homogenized in tissue protein extraction reagent buffer (Invitrogen, 78510) supplemented with protease inhibitor mini tablets (Thermo Fisher Scientific, PIA32955) for Western blotting and qPCR. […] Blood chemical analysis was performed on an Alfa […] Chemistry Analyzer. Reagent kits from Alfa Wasserman were used according to manufacturer's instructions to analyze plasma: lipase (catalog SA1045), HDL-C (catalog SA2038, LDL-C (catalog SA1040), AST (catalog SA1053), ALT (catalog SA1052). A LEGENDPlex was utilized to analyze the concentrations of inflammatory cytokines (BioLegend).

| SMILES | acaca (ApoE^–/– mice on an HFD [1]) | acly (ApoE^–/– mice on an HFD [1]) | cpt1a (ApoE^–/– mice on an HFD [1]) | fasn (ApoE^–/– mice on an HFD [1]) | scd1 (ApoE^–/– mice on an HFD [1]) | srebf1 (ApoE^–/– mice on an HFD [1]) | srebf2 (ApoE^–/– mice on an HFD [1]) | free butyrate, Plasma ([2]; 3 hours after single gavage of 272 mM butyrate) [µM] | plasma IL-1β (ApoE^–/– mice on an HFD [3]) | IL-6 and IFN-γ in plasma (ApoE^–/– mice on an HFD [3]) | Plasma LegendPlex IFNy (ApoE^–/– mice on an HFD [3]) | Plasma LegendPlex IL-1B (ApoE^–/– mice on an HFD [3]) | Plasma LegendPlex IL-6 (ApoE^–/– mice on an HFD [3]) | liver expression of Acly (ApoE^–/– mice on an HFD [1]; 6 weeks, compared with NaBut-treated mice but not water-treated groups) | liver expression of Cpt1a (ApoE^–/– mice on an HFD [1]; 6 weeks, compared with water-treated groups, P = 0.06) | free butyrate in liver, ILNs, kidney, spleen, lung and plasma ([2]; 3 hours after gavage) | free butyrate in the MLNs ([2]; 3 hours after gavage) | free butyrate in the heart and aorta ([2]; 3 hours after gavage, compared with both NaBut-treated and PBS-treated mice) |
| --- | --- | --- | --- | --- | --- | --- | --- | --- | --- | --- | --- | --- | --- | --- | --- | --- | --- | --- |
| CCCC(=O)[O-].[Na+] [NaBut, sodium butyrate, reference compound] | 0.754 and 1.434 and 0.565 and 0.348 | 1.514 and 3.195 and 3.181 and 0.636 | 0.594 and 0.912 and 0.54 and 0.529 | 1.21 and 3.882 and 0.92 and 0.454 | 1.215 and 2.79 and 1.889 and 0.696 | 0.816 and 1.204 and 0.406 and 0.79 | 0.731 and 1.208 and 0.837 and 0.717 | 4.575 | trend toward reduction | did not | 43.19 and 71.91 and 156.97 and 1.54 and 133.26 and 33.33 and 25.52 and 29.92 and 11.45 | 1.73 and 1.26 and 132.12 and 0.34 and 3.85 and 0.46 and 0.64 | 1.6 and 2.29 and 7.3 and 0.92 and 0.99 and 1.54 |  |  |  |  |  |
| CCCC(=O)OC[C@H](N)C(=O)O [SerBut, O-butyryl-L-serine] | 0.188 and 0.284 and 0.192 and 0.406 and 0.341 | 0.526 and 0.622 and 0.832 and 0.324 and 0.471 | 0.348 and 0.381 and 0.409 and 0.745 and 0.465 | 0.409 and 0.404 and 0.103 and 0.193 and 0.312 | 1.631 and 1.826 and 1.024 and 0.978 and 0.7 | 0.853 and 0.562 and 0.47 and 0.606 and 0.321 | 0.511 and 0.812 and 0.428 and 0.961 and 0.372 |  | trend toward reduction | reduced | 1.54 and 21.65 and 44.82 and 28.44 and 36.42 | 1.73 and 1.26 and 21.47 and 0.83 and 1.61 and 1.04 and 1.97 and 2.89 and 4.7 | 1.18 and 0.95 and 0.92 and 0.99 and 2.99 | significantly reduced expression | strong trend toward reduction | significant increases | trending increases | significantly increased free butyrate |
